The values below are quoted from earlier work in US9834755B2, “Compositions and methods for enhanced generation of hematopoietic stem/progenitor cells” (FRED HUTCHINSON CANCER RESEARCH CENTER, priority 2011, dated 2017).

What is called EC50 is the midpoint of the concentration-response curve.

The test system of this series is CD34+ cells. To be noted: cited from earlier work.

Turning to `CC(C)n1cnc2c(NCCc3ccc(O)cc3)nc(-c3cncc(F)c3)nc21` [Example 134], the EC50 was 200 nM.

As for `CC(C)n1cnc2c(NCCc3ccc(O)cc3)nc(-c3cnccc3C#N)nc21` [Example 143], the EC50 is 4300 nM.

On to `CC(C)n1cnc2c(NCCc3ccc(O)cc3)nc(-c3cccc4cnccc34)nc21` [Example 145], for which the EC50 was 5400 nM.

With `Fc1cncc(-c2nc(NCCc3c[nH]c4ccccc34)c3ncn(C4CCOC4)c3n2)c1` (stereo not shown) [Example 158], the EC50 is 12 nM.
